{"source": "patent US20240216342A1", "about": "“BLOOD CARNITINE-INCREASING AGENT” (KOWA COMPANY, LTD., priority 2021, published 2024)", "type_in_all_cases": "in vivo, human", "key": {"[1]": {"assay": "Blood free carnitine in a fasting state, compound A given orally to NAFLD patients for 48 weeks versus placebo (Example 2)", "details": "IR 0.4 mg/day", "description": "A study was conducted on an action on blood carnitine in oral administration of the compound A to a non-alcoholic fatty liver disease (NAFLD) patient at 0.4 mg a day for 48 weeks. For the administration of the compound A, an IR preparation (0.4 mg/day, twice a day) was used, and the administration was performed in a fasting state. A comparison was made with placebo administration. Table 3 and FIG. 3 show a process of a ratio of change in concentration of free carnitine in blood in a fasting state in administration of the compound A (IR 0.4 mg/day) to the NAFLD patient for 48 weeks with respect to the value before administration (at 0 weeks) in Example 2."}, "[2]": {"assay": "Blood free carnitine in a fasting state, compound A given orally to dyslipidemia patients for 4 weeks (Example 1)", "details": "for Ratio of change in free carnitine after administration for 4 weeks with respect to value before administration (at 0 weeks): fasting state, oral", "description": "A study was conducted on an action on blood carnitine in oral administration of the compound A to a dyslipidemia patient at 0.2 to 0.8 mg a day for 4 weeks. For the administration of the compound A, an IR preparation (0.2 mg/day, twice a day), 0.4 mg of a CR preparation (once a day) and 0.8 mg of a CR preparation (once a day) were used, and the administration was performed before or after a meal. Table 1 and FIG. 1 show a ratio of change in concentration of free carnitine in blood in a fasting state in administration of the compound A to the dyslipidemia patient for 4 weeks with respect to the value before administration (at 0 weeks) in Example 1."}, "[3]": {"assay": "Blood free carnitine after meal (high-fat food) versus before meal, compound A given to dyslipidemia patients for 4 weeks (Example 1)", "description": "A study was conducted on an action on blood carnitine in oral administration of the compound A to a dyslipidemia patient at 0.2 to 0.8 mg a day for 4 weeks. For the administration of the compound A, an IR preparation (0.2 mg/day, twice a day), 0.4 mg of a CR preparation (once a day) and 0.8 mg of a CR preparation (once a day) were used, and the administration was performed before or after a meal. Table 2 and FIG. 2 show a process of an amount of change in free carnitine in blood after meal (after intake of high-fat food) with respect to a value before meal in administration of the compound A to the dyslipidemia patient for 4 weeks in Example 1."}}, "data": [{"smiles": "CC[C@@H](Oc1cccc(CN(CCCOc2ccc(OC)cc2)c2nc3ccccc3o2)c1)C(=O)O", "note": "[Compound A, (R)-2-[3-[[N-(benzoxazol-2-yl)-N-3-(4-methoxyphenoxy)propyl]aminomethyl]phenoxy]butyric acid]", "values": [{"measurement": "Time of administration at which the free carnitine increasing action reached the maximum value", "setting": "[1]", "value": 12, "unit": "weeks"}, {"measurement": "Ratio of change in concentration of free carnitine in blood in a fasting state with respect to value before administration (0 weeks), average", "setting": "[1]; 4 weeks", "value": 20.0}, {"measurement": "Ratio of change in concentration of free carnitine in blood in a fasting state with respect to value before administration (0 weeks), average", "setting": "[1]; 12 weeks", "value": 24.7}, {"measurement": "Ratio of change in concentration of free carnitine in blood in a fasting state with respect to value before administration (0 weeks), average", "setting": "[1]; 24 weeks", "value": 24.5}, {"measurement": "Effect on concentration of free carnitine in blood in a fasting state compared to placebo (in words)", "setting": "[1]; 48 weeks", "value": "increased the concentration of free carnitine in blood in a fasting state as compared to placebo administration"}, {"measurement": "Ratio of change in concentration of free carnitine in blood in a fasting state with respect to value before administration (0 weeks), average", "setting": "[1]; 48 weeks", "value": 20.9}, {"measurement": "Effect on concentration of free carnitine in blood in a fasting state (in words)", "setting": "[2]; 0.2 to 0.8 mg a day", "value": "increased the concentration of free carnitine in blood in a dose-dependent manner"}, {"measurement": "Ratio of change in free carnitine after administration for 4 weeks with respect to value before administration (at 0 weeks)", "setting": "[2]; CR preparation 0.4 mg/day", "value": 19.5}, {"measurement": "Ratio of change in free carnitine after administration for 4 weeks with respect to value before administration (at 0 weeks)", "setting": "[2]; CR preparation 0.8 mg/day", "value": 23.71}, {"measurement": "Ratio of change in free carnitine after administration for 4 weeks with respect to value before administration (at 0 weeks)", "setting": "[2]; IR preparation 0.2 mg/day", "value": 11.82}, {"measurement": "Effect on concentration of free carnitine in blood after meal compared to before meal (in words)", "setting": "[3]; 0.2 to 0.8 mg a day, 4 weeks", "value": "increased the concentration of free carnitine in blood after meal as compared to the concentration before meal"}, {"measurement": "Amount of change in free carnitine in blood after meal with respect to value before meal, average", "setting": "[3]; CR 0.4 mg/day (QD) for 4 weeks, 1 h after high-fat meal", "value": 2.78, "unit": "µmol/L"}, {"measurement": "Amount of change in free carnitine in blood after meal with respect to value before meal, average", "setting": "[3]; CR 0.4 mg/day (QD) for 4 weeks, 2.5 h after high-fat meal", "value": 2.65, "unit": "µmol/L"}, {"measurement": "Amount of change in free carnitine in blood after meal with respect to value before meal, average", "setting": "[3]; CR 0.4 mg/day (QD) for 4 weeks, 4.5 h after high-fat meal", "value": 2.25, "unit": "µmol/L"}, {"measurement": "Amount of change in free carnitine in blood after meal with respect to value before meal, average", "setting": "[3]; CR 0.8 mg/day (QD) for 4 weeks, 1 h after high-fat meal", "value": 3.11, "unit": "µmol/L"}, {"measurement": "Amount of change in free carnitine in blood after meal with respect to value before meal, average", "setting": "[3]; CR 0.8 mg/day (QD) for 4 weeks, 2.5 h after high-fat meal", "value": 3.26, "unit": "µmol/L"}, {"measurement": "Amount of change in free carnitine in blood after meal with respect to value before meal, average", "setting": "[3]; CR 0.8 mg/day (QD) for 4 weeks, 4.5 h after high-fat meal", "value": 2.92, "unit": "µmol/L"}, {"measurement": "Amount of change in free carnitine in blood after meal with respect to value before meal, average", "setting": "[3]; IR 0.2 mg/day (BID) for 4 weeks, 1 h after high-fat meal", "value": 2.72, "unit": "µmol/L"}, {"measurement": "Amount of change in free carnitine in blood after meal with respect to value before meal, average", "setting": "[3]; IR 0.2 mg/day (BID) for 4 weeks, 2.5 h after high-fat meal", "value": 2.19, "unit": "µmol/L"}, {"measurement": "Amount of change in free carnitine in blood after meal with respect to value before meal, average", "setting": "[3]; IR 0.2 mg/day (BID) for 4 weeks, 4.5 h after high-fat meal", "value": 1.79, "unit": "µmol/L"}]}]}
